Results reported in PubChem BioAssay AID624497 (The Scripps Research Institute Molecular Screening Center, 2012).
Calls of active or inactive are those of the source. No rule for the calls is given here.

Target: Methionine sulfoxide reductase A (Bos taurus)
Experiment: bovine MsrA activator potency, dose response, biochemical, absorbance, late stage (AID 624497)
Conditions: purified MsrA enzyme activity, absorbance read-out

Structure (SMILES): O=C1c2ccccc2-c2nnc(-c3ccccc3)cc21
- EC50: > 104 µM (inactive)

Structure (SMILES): O=C(COC(=O)c1ccc([N+](=O)[O-])s1)NCc1ccc(F)cc1
- EC50: inactive

Structure (SMILES): c1ccc2[nH]c3cc4ncnc4cc3nc2c1
- EC50: inactive

Structure (SMILES): O=C(OCC(=O)c1c[nH]c2ccccc12)c1ccc([N+](=O)[O-])s1
- EC50: > 104 µM (inactive)

Structure (SMILES): O=C(COC(=O)c1ccc([N+](=O)[O-])s1)NNC(=O)c1ccccc1
- EC50: > 104 µM (inactive)

Structure (SMILES): O=C1C(=O)c2cccnc2-c2ncccc21
- EC50: 4.46 µM

Structure (SMILES): O=C1C=C(Nc2ccccc2O)c2ccccc2C1=O
- EC50: > 104 µM (inactive)

Structure (SMILES): O=C(OCC(=O)N1CCN(c2ccccc2)CC1)c1ccc([N+](=O)[O-])s1
- EC50: inactive

Structure (SMILES): Cc1oc2c(c1C(=O)c1ccccc1)C(=O)C(=O)c1ccccc1-2
- EC50: > 104 µM (inactive)

Structure (SMILES): CC1CCCC(NC(=O)COC(=O)c2ccc([N+](=O)[O-])s2)C1C (configuration not stated)
- EC50: inactive

Structure (SMILES): Nc1nc(=S)ss1
- EC50: inactive

Structure (SMILES): O=C(OCC(=O)N(c1ccccc1)c1ccccc1)c1ccc([N+](=O)[O-])s1
- EC50: inactive

Structure (SMILES): CNc1ccc2nc3ccccc3[n+](C)c2c1
- EC50: 2.05 µM

Structure (SMILES): O=C1C(Cl)=C(Nc2ccc(O)cc2)C(=O)c2ccccc21
- EC50: > 104 µM (inactive)

Structure (SMILES): O=C1CN(C(=O)COC(=O)c2ccc([N+](=O)[O-])s2)c2ccccc2N1
- EC50: inactive

Structure (SMILES): CS(=O)(=O)c1ccc(N)c(SSc2cc(S(C)(=O)=O)ccc2N)c1
- EC50: > 104 µM (inactive)

Structure (SMILES): O=C(COC(=O)c1ccc([N+](=O)[O-])s1)c1ccc[nH]1
- EC50: inactive

Structure (SMILES): O=[N+]([O-])c1ccc(C=Nc2cccc3ccccc23)s1
- EC50: > 104 µM (inactive)

Structure (SMILES): COc1cc(NC(=O)COC(=O)c2ccc([N+](=O)[O-])s2)cc(OC)c1OC
- EC50: > 104 µM (inactive)

Structure (SMILES): COc1ccc(S(=O)(=O)N2CCOCC2)cc1NC(=O)COC(=O)c1ccc([N+](=O)[O-])s1
- EC50: inactive

Structure (SMILES): O=C(c1ccccc1)c1coc2c1C(=O)c1ccccc1C2=O
- EC50: inactive

Structure (SMILES): COc1ccccc1NC(=O)COC(=O)c1ccc([N+](=O)[O-])s1
- EC50: inactive

Structure (SMILES): Cc1ccc2[nH]c3c(c2c1)CN(C(=O)CN1CCN(c2ccccn2)CC1)CC3
- EC50: > 104 µM (inactive)

Structure (SMILES): NC1=C(Br)C(=O)c2ccccc2C1=O
- EC50: > 104 µM (inactive)

Structure (SMILES): O=C(COC(=O)c1ccc([N+](=O)[O-])s1)NCCc1ccccc1
- EC50: inactive

Structure (SMILES): OCC[n+]1c2ccccc2nc2ccc(N3CCOCC3)cc21
- EC50: inactive

Structure (SMILES): O=C(COC(=O)c1ccc([N+](=O)[O-])s1)Nc1ccccc1
- EC50: > 104 µM (inactive)

Structure (SMILES): C[n+]1c2ccccc2nc2ccc(NCCO)cc21
- EC50: 4.93 µM

Structure (SMILES): CC(C)(C)c1ccc(NC(=O)COC(=O)c2ccc([N+](=O)[O-])s2)cc1
- EC50: > 104 µM (inactive)

Structure (SMILES): COCCCn1c(=O)c2ccccc2n2c(=S)[nH]nc12
- EC50: > 104 µM (inactive)

Structure (SMILES): O=C(OCc1nnc(-c2ccccc2)o1)c1ccc([N+](=O)[O-])s1
- EC50: inactive

Structure (SMILES): O=C(COC(=O)c1ccc([N+](=O)[O-])s1)Nc1cccc(S(=O)(=O)NC2=NCCCCC2)c1
- EC50: > 104 µM (inactive)
